What was measured:
Format in all cases: biochemical
PPK1 [1] = target: T1, PPK1 (Streptomyces noursei, UniProt A0A2N8P4S7); assay: ATP formation from ADP and polyPn; settings: 5 uM ADP, 5 uM polyP (polyP6 best), 20 mM MgSO4, 50 mM Tris-HCl pH 8.0, 30 °C, 2 h
T1 construct: gene ppk; gene amplified from the WG608 genome

PPK2B^cg = PPK2B^cg (Corynebacterium glutamicum, UniProt Q8NM65); assay: ATP formation from ADP and polyPn; settings: 5 uM ADP, 5 uM polyP (polyP6 best), 20 mM MgSO4, 50 mM Tris-HCl pH 8.0, 30 °C, 2 h
PPK2C^pa = target: T2, PPK2C^pa (Pseudomonas aeruginosa, UniProt Q9HYF1); assay: ATP formation from ADP and polyPn; settings: 5 uM ADP, 5 uM polyP (polyP6 best), 20 mM MgSO4, 50 mM Tris-HCl pH 8.0, 30 °C, 2 h
T2 construct: gene PA3455
T2 sequence (Q9HYF1 1-496): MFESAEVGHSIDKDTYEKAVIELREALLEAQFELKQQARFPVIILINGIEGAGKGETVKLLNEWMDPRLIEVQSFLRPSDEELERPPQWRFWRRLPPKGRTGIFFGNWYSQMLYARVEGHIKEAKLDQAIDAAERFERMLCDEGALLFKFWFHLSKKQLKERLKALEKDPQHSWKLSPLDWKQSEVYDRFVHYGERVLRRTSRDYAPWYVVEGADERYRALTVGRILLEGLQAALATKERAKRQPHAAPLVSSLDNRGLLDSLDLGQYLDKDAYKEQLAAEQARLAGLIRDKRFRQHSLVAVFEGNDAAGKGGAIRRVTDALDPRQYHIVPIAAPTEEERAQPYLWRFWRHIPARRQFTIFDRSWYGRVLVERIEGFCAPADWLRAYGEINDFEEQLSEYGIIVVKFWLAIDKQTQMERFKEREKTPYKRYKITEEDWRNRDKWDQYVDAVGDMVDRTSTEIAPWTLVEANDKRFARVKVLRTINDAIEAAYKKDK

PPK1 [2] = target: T1, PPK1; assay: change of ATP concentration, reverse reaction; settings: 0-10 uM ATP, 5 uM ADP, 5 uM polyP6, 20 mM MgSO4, 50 mM Tris-HCl pH 8.0, 30 °C, 2 h

SMILES | ATP formation from ADP and polyPn (PPK1 [1]) | ATP formation from ADP and polyPn (PPK2B^cg) | ATP formation from ADP and polyPn (PPK2C^pa) | change of ATP concentration, reverse reaction (PPK1 [2])
Nc1ncnc2c1ncn2[C@@H]1O[C@H](COP(=O)(O)OP(=O)(O)O)[C@@H](O)[C@H]1O [ADP] | The activities of the three PPKs were compared in vitro using ADP, and different polyPs | PPK2B^cg exhibited the highest ATP production ability | The activities of the three PPKs were compared in vitro using ADP, and different polyPs | –
Nc1ncnc2c1ncn2[C@@H]1O[C@H](COP(=O)(O)OP(=O)(O)OP(=O)(O)O)[C@@H](O)[C@H]1O [ATP] | – | – | – | PPK1 catalyzes polyP6 polymerization and ATP is degraded into ADP
